These results are taken from ChEMBL document CHEMBL1201862, “PubChem BioAssay data set” (2004).

One may read the Ki as a measure of affinity in units of concentration, obtained from inhibition or displacement.

Calls of active or inactive are those of the source. No rule for the calls is given here.

In test [1] the target is Cyclin-dependent kinase 7 (Homo sapiens, UniProt P50613). The format is functional.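 Also: value comes from a kinome-wide kinase profiling panel in which CDK7 is one member.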
Sequence of Cyclin-dependent kinase 7 (P50613 whole entry): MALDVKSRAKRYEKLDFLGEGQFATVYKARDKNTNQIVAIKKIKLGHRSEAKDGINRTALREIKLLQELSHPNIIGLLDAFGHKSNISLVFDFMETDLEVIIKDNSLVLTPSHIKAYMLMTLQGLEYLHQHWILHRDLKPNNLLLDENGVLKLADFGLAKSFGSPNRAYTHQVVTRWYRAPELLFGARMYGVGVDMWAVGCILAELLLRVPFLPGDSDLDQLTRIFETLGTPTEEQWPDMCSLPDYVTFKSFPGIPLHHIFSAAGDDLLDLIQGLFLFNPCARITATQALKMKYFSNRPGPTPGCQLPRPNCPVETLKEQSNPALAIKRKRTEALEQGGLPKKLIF
Test [2] has as its target Dual specificity tyrosine-phosphorylation-regulated kinase 4 (Homo sapiens, UniProt Q9NR20). The format is functional.

Sequence of Dual specificity tyrosine-phosphorylation-regulated kinase 4 (Q9NR20 whole entry): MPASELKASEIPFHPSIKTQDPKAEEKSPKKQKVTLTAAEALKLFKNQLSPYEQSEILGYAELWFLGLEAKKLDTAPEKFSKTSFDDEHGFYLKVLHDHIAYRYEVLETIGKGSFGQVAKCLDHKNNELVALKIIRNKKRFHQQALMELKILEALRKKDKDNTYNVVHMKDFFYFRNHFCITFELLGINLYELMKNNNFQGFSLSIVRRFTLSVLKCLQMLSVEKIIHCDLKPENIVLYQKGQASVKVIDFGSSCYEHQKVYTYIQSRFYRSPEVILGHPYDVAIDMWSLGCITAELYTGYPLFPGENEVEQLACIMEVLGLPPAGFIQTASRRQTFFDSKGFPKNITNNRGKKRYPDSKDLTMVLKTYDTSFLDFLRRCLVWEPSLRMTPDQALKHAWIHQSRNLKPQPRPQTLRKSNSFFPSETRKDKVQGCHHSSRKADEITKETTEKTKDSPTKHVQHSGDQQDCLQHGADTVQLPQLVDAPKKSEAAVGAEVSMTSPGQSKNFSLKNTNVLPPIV

Take `COc1ccc(C(=O)Nc2n[nH]c3ccc(-c4cn(Cc5ccccc5)nn4)cc23)cc1OC`: the Ki in test [1] is 0.126 µM (active); in test [2], 6.31 µM (active).
